Data from ChEMBL document CHEMBL1128610, “Synthesis of potential -lactam antibiotics” (1995).
The source made the active and inactive calls. The rule behind the calls is not given here.

Key:
Staphylococcus aureus [1] = test: Minimum inhibitory concentration required for antibacterial activity against Staphylococcus aureus ATCC 29213; format: functional
Escherichia coli [2] = test: Minimum inhibitory concentration required for antibacterial activity against Escherichia coli ATCC 25922; format: functional
Staphylococcus aureus [3] = test: Compound was evaluated for antibacterial activity against Staphylococcus aureus ATCC 29213; Inactive; format: functional, organism-based
Escherichia coli [4] = test: Compound was evaluated for antibacterial activity against Escherichia coli ATCC 25922; Inactive; format: functional, organism-based

| SMILES | MIC (Staphylococcus aureus [1]) | MIC (Escherichia coli [2]) | MIC (Staphylococcus aureus [3]) | MIC (Escherichia coli [4]) |
| --- | --- | --- | --- | --- |
| CCOC(C(=O)[O-])N1OC[C@H](NC(=O)c2ccccc2)C1=O.[K+] (stereo partly specified) | > 1000 µg/mL | > 1000 µg/mL |  |  |
| O=C(COc1ccccc1)N[C@H]1CON(S(=O)(=O)[O-])C1=O.[K+] | > 500 µg/mL | > 500 µg/mL |  |  |
| CO/N=C(\C(=O)N[C@H]1CON(C(Oc2ccccc2)C(=O)O)C1=O)c1csc(N)n1 (stereo in doubt; 4b) |  |  | inactive | inactive |
| CO/N=C(\C(=O)N[C@H]1CON(C(Oc2ccccc2)C(=O)O)C1=O)c1csc(N)n1 (stereo in doubt; 4c) |  |  | inactive | inactive |
| CO/N=C(\C(=O)N[C@H]1CON(C(Oc2ccc(F)cc2)C(=O)O)C1=O)c1csc(N)n1 (stereo in doubt; 4d) |  |  | inactive | inactive |
| CO/N=C(\C(=O)N[C@H]1CON(C(Oc2ccc(F)cc2)C(=O)O)C1=O)c1csc(N)n1 (stereo in doubt; 4e) |  |  | inactive | inactive |
| CO/N=C(\C(=O)N[C@H]1CON(C(Oc2ccc(Cl)cc2)C(=O)O)C1=O)c1csc(N)n1 (stereo in doubt; 4f) |  |  | inactive | inactive |
| CO/N=C(\C(=O)N[C@H]1CON(C(Oc2ccc(Cl)cc2)C(=O)O)C1=O)c1csc(N)n1 (stereo in doubt; 4g) |  |  | inactive | inactive |
